The record followed here is patent US8592428B2 (MSD K. K., priority 2008, dated 2013).

Data set [1] in a line: Solubility in water by solution precipitation method (HPLC). The data set is classed as physicochemical. The settings on record: water (2% DMSO), kinetic from dmso stock, from 10 mM DMSO solution, 60 minutes stirring at room temperature, compounds of the present invention. As for the experimental part:
For solubility in water, the solubility of a compound in water was determined by a solution precipitation method.
For an HPLC system, Agilent HPLC 1100 system was used. […] For a shaker, Microincubator M-36 (Taitec) was used. For a plate, a 96-deep well plate (Nunc. 260252) was used. For a well cap, Pre-Slit Well Cap for 96 Well PP (NALGENE. 276011) was used. For a filtration plate, MultiScreen Solubility (Millipore; MSSLBPC10) was used. For dispensation, an 8-channel electronic multipipette, Biohit Proline (Biohit), and a 96-well automatic pipetting device, Biomeck 2000 (Biomeck) were used. For a reagent used, a pure solvent for DMSO ultraviolet absorption spectrum (Dojindo 349-01025) and water (MiliQ water, manufactured by Millipore).
For a DMSO solution, a sample was prepared with DMSO to be precisely 10 mM.
Precise dispensation of 10 μL of a DMSO solution into each well of a 96-well plate was performed. Following addition of 490 μL of water to each of the wells and plate-sealing with 96-well Cap (Agilent No. 5042-1389), intense stirring processing of the plate was performed for 60 minutes at room temperature on a shaker. Subsequently, 200 μL of a treatment sample was added to a plate for centrifugal filtration, and centrifugal filtration of the sample was performed to obtain a filtrate. A sample solution was made by adding 200 μl, of a 50% aqueous acetonitrile solution to the provided filtrate.
Precise dispensation of 10 μL of a DMSO solution into each well of a 96-well plate was performed.
Detection was performed using a multi-wavelength detector (190-370 nm). For a column, the above-mentioned column was used at 40° C. A flow rate was set at 1.2 ml/min, and an amount of an injected sample at 20 μL. For a moving phase, a 0.1% aqueous phosphoric acid solution as a liquid A and acetonitrile as a liquid B were used to carry out analyses in accordance with a time schedule described below.
For the analyses, the data of UV 275 nm were adopted. […] Using the calibration curve, regression calculation of concentrations in water was carried out from Area of sample solutions (water).

In data set [2] the target is T1, recombinant human liver GK (Homo sapiens, UniProt P35557).
T1 construct: made in house; host or cells: E. coli
T1 sequence (P35557 1-466 isoform P35557-2): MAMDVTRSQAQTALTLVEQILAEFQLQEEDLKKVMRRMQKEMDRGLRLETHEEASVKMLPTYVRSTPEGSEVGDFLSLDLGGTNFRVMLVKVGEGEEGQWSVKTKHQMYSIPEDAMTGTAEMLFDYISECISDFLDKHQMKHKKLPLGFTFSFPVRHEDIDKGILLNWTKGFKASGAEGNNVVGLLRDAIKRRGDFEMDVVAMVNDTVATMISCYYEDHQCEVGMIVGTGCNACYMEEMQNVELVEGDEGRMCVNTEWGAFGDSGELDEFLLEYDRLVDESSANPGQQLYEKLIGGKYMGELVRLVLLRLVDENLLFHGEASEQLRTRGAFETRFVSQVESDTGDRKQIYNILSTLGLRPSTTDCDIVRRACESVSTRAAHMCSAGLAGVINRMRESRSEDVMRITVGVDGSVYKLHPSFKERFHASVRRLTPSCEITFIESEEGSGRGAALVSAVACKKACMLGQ
Nature of the data set: Glucokinase-activating effect (Thio-NADH coupled G6PDH assay). The format is biochemical. The settings on record: final glucose concentration 2.5 mM, 30° C.; for Emax: OD level of DMSO control = 100%. An excerpt:
The excellent glucokinase-activating effect of the compounds of formula (I) may be determined by a method described in literature (for example, Diabetes, Vol. 45, pp. 1671-1677, 1996), or in accordance with it.
The glucokinase activity may be determined not by directly measuring glucose-6-phosphate but by measuring the level of Thio-NADH, which is produced when a reporter enzyme, glucose-6-phosphate dehydrogenase produces phosphogluconolactone from glucose-6-phosphate, and based on the level, the degree of glucokinase activation by the compound tested may be determined.
In this assay, used was a recombinant human liver GK, which was expressed by E. coli as a FLAG fusion protein therein and was purified by […] M2 AFFINITY GEL (Sigma).
Using a flat-bottomed 96-well plate, the assay was carried out at 30° C. 69 μl of an assay buffer (25 mM Hepes Buffer/pH=7.2, 2 mM MgCl2, 1 mM ATP, 0.5 mM TNAD, 1 mM dithiothreitol) was put into the plate, and 1 μl of a DMSO solution of the compound or DMSO alone as a control was added thereto. Next, 20 μl of an enzyme mixture (FLAG-GK, 20 U/ml G6PDH) cooled in ice was added to it, and 10 μl of a substrate, 25 mM glucose was added to it, and the reaction was initiated (final glucose concentration=2.5 mM).
After the start of the reaction, the increase in the absorbance at 405 nm was measured for 12 minutes at intervals of 30 seconds, and the increase for the first 5 minutes was used for assessing the compound tested. FLAG-GK was added so that the absorbance increase after 5 minutes in the presence of 1% DMSO could be from 0.04 to 0.06.
The OD level of the DMSO control was set as 100%; and the OD level of the test compound at different concentrations was determined. From the OD level at each concentration, Emax (%) and EC50 (μM) were computed and used as the index of the GK-activating potency of the compound.

≈ marks a conversion by molar mass, not a printed value.

As to `CC(=O)N1CCC[C@@H]1c1cc2[nH]c(-c3cnccn3)cc2cc1Oc1ccc(C(=O)N(C)C)nc1` [Example 25, 6-[(R)-1-acetylpyrrolidin-2-yl]-5-[6-(N,N-dimethylcarbamoyl)pyridin-3-yloxy]-2-(pyrazin-2-yl)-1H-indole], the solubility (as a rule, the dissolved amount per volume that the medium holds) at 60 min in data set [1] is greater than 170 µM. Regarding `CC(=O)N1CCC[C@@H]1c1cc2[nH]c(-c3cnc(CO)cn3)cc2cc1Oc1ccc(S(C)(=O)=O)nc1` [Example 10, 6-[(R)-1-acetylpyrrolidin-2-yl]-2-(5-hydroxymethylpyrazin-2-yl)-5-(6-methylsulfonylpyridin-3-yloxy)-1H-indole], the EC50 (commonly the midpoint of the concentration-response curve) in data set [2] is 110 nM. The molecule also yielded a solubility at 60 min in data set [1] of 95.1 µM (≈ 48.3 µg/mL).

Turning to `CCNC(=O)c1ccc(Oc2cc3cc(-c4cnccn4)[nH]c3cc2[C@H]2CCCN2C(C)=O)cn1` [Example 26, 6-[(R)-1-acetylpyrrolidin-2-yl]-5-[6-(N-ethylcarbamoyl)pyridin-3-yloxy]-2-(pyrazin-2-yl)-1H-indole], in data set [2], the Emax (usually the greatest response seen or fitted, relative to the assay's reference) stood at 942% and the EC50 is 160 nM. In data set [1], this molecule yielded a solubility at 60 min of 129 µM (≈ 60.7 µg/mL). In data set [1], `CC(=O)N1CCC[C@@H]1c1cc2[nH]c(-c3ccc(C(C)(C)O)cn3)cc2cc1Oc1ccc(CO)nc1` [Example 8, 6-[(R)-1-acetylpyrrolidin-2-yl]-2-[5-(1,1-dimethylhydroxymethyl)pyridin-2-yl]-5-(6-hydroxymethylpyridin-3-yloxy)-1H-indole] returned a solubility at 60 min greater than 170 µM. Still for that read-out and setting: the same measure for `CC(=O)N1CCC[C@@H]1c1cc2[nH]c(-c3cnccn3)cc2cc1Oc1ccc(CCO)nc1` [Example 19, 6-[(R)-1-acetylpyrrolidin-2-yl]-5-[6-(2-hydroxyethyl)pyridin-3-yloxy]-2-(pyrazin-2-yl)-1H-indole]: greater than 170 µM. As for `CC(=O)N1CCC[C@@H]1c1cc2[nH]c(-c3ccn(C)n3)cc2cc1Oc1ccc(S(C)(=O)=O)nc1` [Example 4, 6-[(R)-1-acetylpyrrolidin-2-yl]-2-(1-methyl-1H-pyrazol-3-yl)-5-(6-methylsulfonylpyridin-3-yloxy)-1H-indole], in data set [2], the Emax was 943% and the EC50 was 180 nM. In data set [1], this molecule returned a solubility at 60 min greater than 170 µM. For `CC(=O)N1CCC[C@@H]1c1cc2[nH]c(-c3cnccn3)cc2cc1Oc1ccc(OCCO)nc1` [Example 12, 6-[(R)-1-acetylpyrrolidin-2-yl]-5-[6-(2-hydroxyethoxy)pyridin-3-yloxy]-2-(pyrazin-2-yl)-1H-indole], in data set [1], the concentration in solution (solubility at 60 min) came to 128 µM (≈ 58.8 µg/mL). For `COCc1ccc(Oc2cc3cc(-c4cnccn4)[nH]c3cc2[C@H]2CCCN2C(C)=O)cn1` [Example 17, 6-[(R)-1-acetylpyrrolidin-2-yl]-5-(6-methoxymethylpyridin-3-yloxy)-2-(pyrazin-2-yl)-1H-indole], in data set [2], the maximal effect (Emax) turned out to be 988% and the EC50 was 80 nM. For the same molecule, the solubility at 60 min in data set [1] was greater than 170 µM. As to `CC(=O)N1CCC[C@@H]1c1cc2[nH]c(-c3cnc(C(C)(C)O)cn3)cc2cc1Oc1ccc(S(C)(=O)=O)nc1` [Example 22, 6-[(R)-1-acetylpyrrolidin-2-yl]-2-[5-(1,1-dimethylhydroxymethyl)pyrazin-2-yl]-5-(6-methylsulfonylpyridin-3-yloxy)-1H-indole], the solubility at 60 min in data set [1] is greater than 170 µM. Turning to `CC(=O)N1CCC[C@@H]1c1cc2[nH]c(-c3cnc(C)cn3)cc2cc1Oc1ccc(CO)nc1` [Example 7, 6-[(R)-1-acetylpyrrolidin-2-yl]-5-(6-hydroxymethylpyridin-3-yloxy)-2-(5-methylpyrazin-2-yl)-1H-indole], in data set [2], the EC50 amounted to 120 nM. The solubility at 60 min in data set [1] was greater than 170 µM. In data set [1], `CC(=O)N1CCC[C@@H]1c1cc2[nH]c(-c3ccc(CO)cn3)cc2cc1Oc1ccc(C(=O)N2CCC2)nc1` [Example 23, 6-[(R)-1-acetylpyrrolidin-2-yl]-5-[6-(azetidin-1-ylcarbonyl)pyridin-3-yloxy]-2-(5-hydroxymethylpyridin-2-yl)-1H-indole] gave a solubility at 60 min of 77.6 µM (≈ 39.7 µg/mL). For `CC(=O)N1CCC[C@@H]1c1cc2[nH]c(-c3cnccn3)cc2cc1Oc1ccc(C(=O)N2CCC2)nc1` [Example 20, 6-[(R)-1-acetylpyrrolidin-2-yl]-5-[6-(azetidin-1-ylcarbonyl)pyridin-3-yloxy]-2-(pyrazin-2-yl)-1H-indole], the solubility at 60 min in data set [1] amounted to 122 µM (≈ 59.1 µg/mL). In turn, `CC(=O)N1CCC[C@@H]1c1cc2[nH]c(-c3cnc(CO)cn3)cc2cc1Oc1ccc(OCCO)nc1` [Example 14, 6-[(R)-1-acetylpyrrolidin-2-yl]-5-[6-(2-hydroxyethoxy)pyridin-3-yloxy]-2-(5-hydroxymethylpyrazin-2-yl)-1H-indole] displayed a solubility at 60 min in data set [1] greater than 170 µM. In data set [1], `COCc1ccc(Oc2cc3cc(-c4ccccn4)[nH]c3cc2[C@H]2CCCN2C(C)=O)cn1` [Example 18, 6-[(R)-1-acetylpyrrolidin-2-yl]-5-(6-methoxymethylpyridin-3-yloxy)-2-(pyridin-2-yl)-1H-indole] registered a solubility at 60 min of 133 µM (≈ 58.8 µg/mL). Same read-out and setting: the same measure for `CNC(=O)c1ccc(-c2cc3cc(Oc4ccc(S(C)(=O)=O)nc4)c([C@H]4CCCN4C(C)=O)cc3[nH]2)nc1` [Example 5, 6-[(R)-1-acetylpyrrolidin-2-yl]-2-[5-(N-methylcarbamoyl)pyridin-2-yl]-5-(6-methylsulfonylpyridin-3-yloxy)-1H-indole]: 112 µM (≈ 59.5 µg/mL).

As for `CC(=O)N1CCC[C@@H]1c1cc2[nH]c(-c3ccc(C(C)(C)O)cn3)cc2cc1Oc1ccc(C(=O)N2CCC2)nc1` [Example 24, 6-[(R)-1-acetylpyrrolidin-2-yl]-5-[6-(azetidin-1-ylcarbonyl)pyridin-3-yloxy]-2-[5-(1,1-dimethylhydroxymethyl)pyridin-2-yl]-1H-indole], in data set [1], the concentration in solution (solubility at 60 min) came to 142 µM (≈ 76.6 µg/mL). On the same count and under the same terms, the same measure for `CC(=O)N1CCC[C@@H]1c1cc2[nH]c(-c3cnc(C(C)(C)O)cn3)cc2cc1Oc1ccc(C(=O)N2CCC2)nc1` [Example 21, 6-[(R)-1-acetylpyrrolidin-2-yl]-5-[6-(azetidin-1-ylcarbonyl)pyridin-3-yloxy]-2-[5-(1,1-dimethylhydroxymethyl)pyrazin-2-yl]-1H-indole]: greater than 170 µM; for `CC(=O)N1CCC[C@@H]1c1cc2[nH]c(-c3cnccn3)cc2cc1Oc1ccc(CO)nc1` [Example 6, 6-[(R)-1-acetylpyrrolidin-2-yl]-5-(6-hydroxymethylpyridin-3-yloxy)-2-(pyrazin-2-yl)-1H-indole]: greater than 170 µM. Same read-out and setting: the same measure for `CC(=O)N1CCC[C@@H]1c1cc2[nH]c(-c3ccccn3)cc2cc1Oc1ccc(OCCO)nc1` [Example 11, 6-[(R)-1-acetylpyrrolidin-2-yl]-5-[6-(2-hydroxyethoxy)pyridin-3-yloxy]-2-(pyridin-2-yl)-1H-indole]: 48.6 µM (≈ 22.3 µg/mL).
